# Laboratory results published in patent US11285127B2, “Compositions and methods for lowering triglycerides without raising LDL-C levels in a subject on concomitant statin therapy” (Amarin Pharmaceuticals Ireland Limited, priority 2013, dated 2022).
# Test system: patients with fasting triglyceride levels >200 mg/dl and <500 mg/dl despite statin therapy
# Assay: 12-week study: lipid profile (TC, LDL-C, HDL-C, non-HDL-C, VLDL-C, VLDL-TG, RLP-C)
# Type: in vivo, human
# Conditions: MITT
# Excerpt: Parameters (a)-(z) can be measured in accordance with any clinically acceptable methodology. For example, triglycerides, total cholesterol, HDL-C and fasting blood sugar can be sample from serum and analyzed using standard photometry techniques. VLDL-TG, LDL-C and VLDL-C can be calculated or determined using serum lipoprotein fractionation by preparative ultracentrifugation and subsequent quantitative analysis by refractometry or by analytic ultracentrifugal methodology. Apo A1, Apo B and hsCRP can be determined from serum using standard nephelometry techniques. Lipoprotein (a) can be determined from serum using standard turbidimetric immunoassay techniques. LDL particle number and particle size can be determined using nuclear magnetic resonance (NMR) spectrometry. Remnants lipoproteins and LDL-phospholipase A2 can be determined from EDTA plasma or serum and serum, respectively, using enzymatic immunoseparation techniques. Oxidized LDL, intercellular adhesion molecule-1 and interleukin-2 levels can be determined from serum using standard enzyme immunoassay techniques. These techniques are described in detail in standard textbooks, for example Tietz Fundamentals of Clinical Chemistry, 6th Ed. (Burtis, Ashwood and Borter Eds.), WB Saunders Company.
# A multi-center, placebo-controlled, randomized, double-blind, 12-week study was performed to evaluate the efficacy and safety of >96% E-EPA in patients with fasting triglyceride levels >200 mg/dl and <500 mg/dl despite statin therapy (the mean of two qualifying entry values needed to be >185 mg/dl and at least one of the values needed to be >200 mg/dl). The primary objective of the study was to determine the efficacy of >96% E-EPA 2 g daily and 4 g daily, compared to placebo, in lowering fasting TG levels in patients with high risk for cardiovascular disease and with fasting TG levels 200 mg/dl and <500 mg/dl, despite treatment to LDL-C goal on statin therapy.
# The secondary objectives of this study were the following: • 1. To determine the safety and tolerability of >96% E-EPA 2 g daily and 4 g daily; • 2. To determine the effect of >96% E-EPA on lipid and apolipoprotein profiles including total cholesterol (TC), non-high-density lipoprotein cholesterol (non-HDL-C), low density lipoprotein cholesterol (LDL-C), high density lipoprotein cholesterol (HDL-C), and […]; • 3. To determine the effect of >96% E-EPA on lipoprotein associated phospholipase A2 (Lp-PLA2) from baseline to week 12; • 4. To determine the effect of >96% E-EPA on low-density lipoprotein (LDL) particle number and size; • 5. To determine the effect of >96% E-EPA on oxidized LDL; • 6. To determine the effect of >96% E-EPA on fasting plasma glucose (FPG) and hemoglobin A1c (HbA1c); • 7. To determine the effect of >96% E-EPA on insulin resistance; • 8. To determine the effect of >96% E-EPA on high-sensitivity C-reactive protein (hsCRP); • 9. To determine the effects of >96% E-EPA 2 g daily and 4 g daily on the incorporation of fatty acids into red blood cell membranes and into plasma phospholipids; • 10. To explore the relationship between baseline fasting TG levels and the reduction in fasting TG levels; and • 11. To explore the relationship between changes of fatty acid concentrations in plasma and red blood cell membranes, and the reduction in fasting TG levels.
# The primary efficacy variable for the double-blind treatment period was percent change in TG from baseline to Week 12 endpoint. […]
# [1] = AMR 101 2 g + statin, Atorva subgroup
# [2] = AMR 101 2 g + statin, Rosuva subgroup
# [3] = AMR 101 2 g + statin, Simva subgroup
# [4] = AMR 101 2 g + statin, Statin Potency High
# [5] = AMR 101 2 g + statin, Statin Potency Low
# [6] = AMR 101 2 g + statin, Statin Potency Medium
# [7] = AMR 101 2 g + statin, Diabetes No, Week 12 endpoint
# [8] = AMR 101 2 g + statin, Diabetes Yes, Week 12 endpoint
# [9] = AMR 101 2 g + statin, Non-statin Washout No, Week 12 endpoint
# [10] = AMR 101 2 g + statin, Non-statin Washout Yes, Week 12 endpoint
# [11] = AMR 101 2 g + statin, baseline TG tertile Highest (≥289.5 mg/dL), Week 12 endpoint
# [12] = AMR 101 2 g + statin, baseline TG tertile Lowest (<230.5 mg/dL), Week 12 endpoint
# [13] = AMR 101 2 g + statin, baseline TG tertile Middle (230.5 to <289.5 mg/dL), Week 12 endpoint
# [14] = AMR101 2 g/d + statin, Week 12 endpoint
# [15] = AMR101 2 g/d + statin, percent change from baseline to Week 12 endpoint
# [16] = AMR 101 4 g + statin, Atorva subgroup
compound,measurement,setting,value
"CC/C=C\C/C=C\C/C=C\C/C=C\C/C=C\CCCC(=O)OCC [AMR101, ethyl eicosapentaenoate]",LDL-C Median % chg from BL,[1],4.9%
same,"LDL-C, Diff from pbo (Hodges-Lehmann median difference)",[1],1.1
same,"LDL-C, EOT (Week 12 endpoint) median",[1],88.0
same,Non-HDL-C Median % chg from BL,[1],10.5%
same,"Non-HDL-C, Diff from pbo (Hodges-Lehmann median difference)",[1],2.0
same,"Non-HDL-C, EOT (Week 12 endpoint) median",[1],135.0
same,LDL-C Median % chg from BL,[2],4.3%
same,"LDL-C, Diff from pbo (Hodges-Lehmann median difference)",[2],−4.2
same,"LDL-C, EOT (Week 12 endpoint) median",[2],87.0
same,Non-HDL-C Median % chg from BL,[2],2.7%
same,"Non-HDL-C, Diff from pbo (Hodges-Lehmann median difference)",[2],−9.0
same,"Non-HDL-C, EOT (Week 12 endpoint) median",[2],133.0
same,LDL-C Median % chg from BL,[3],1.8%
same,"LDL-C, Diff from pbo (Hodges-Lehmann median difference)",[3],−4.8
same,"LDL-C, EOT (Week 12 endpoint) median",[3],88.0
same,Non-HDL-C Median % chg from BL,[3],0.0%
same,"Non-HDL-C, Diff from pbo (Hodges-Lehmann median difference)",[3],−6.8
same,"Non-HDL-C, EOT (Week 12 endpoint) median",[3],133.5
same,LDL-C Median % chg from BL,[4],3.1%
same,"LDL-C, Diff from pbo (Hodges-Lehmann median difference)",[4],−1.7
same,"LDL-C, EOT (Week 12 endpoint) median",[4],91.0
same,Non-HDL-C Median % chg from BL,[4],5.4%
same,"Non-HDL-C, Diff from pbo (Hodges-Lehmann median difference)",[4],−3.5
same,"Non-HDL-C, EOT (Week 12 endpoint) median",[4],142
same,LDL-C Median % chg from BL,[5],0.9%
same,"LDL-C, Diff from pbo (Hodges-Lehmann median difference)",[5],7.1
same,"LDL-C, EOT (Week 12 endpoint) median",[5],95.0
same,Non-HDL-C Median % chg from BL,[5],−2.2%
same,"Non-HDL-C, Diff from pbo (Hodges-Lehmann median difference)",[5],3.3
same,"Non-HDL-C, EOT (Week 12 endpoint) median",[5],135
same,LDL-C Median % chg from BL,[6],2.4%
same,"LDL-C, Diff from pbo (Hodges-Lehmann median difference)",[6],−5.9
same,"LDL-C, EOT (Week 12 endpoint) median",[6],85.0
same,Non-HDL-C Median % chg from BL,[6],1.7%
same,"Non-HDL-C, Diff from pbo (Hodges-Lehmann median difference)",[6],−7.1
same,"Non-HDL-C, EOT (Week 12 endpoint) median",[6],133
same,"LDL-C Diff from pbo (median % chg, Hodges-Lehmann)",[7],−3.1%
same,LDL-C EOT Median,[7],88.0 mg/dL
same,LDL-C Median % chg from BL,[7],2.6%
same,"Non-HDL-C Diff from pbo (median % chg, Hodges-Lehmann)",[7],−8.6%
same,Non-HDL-C EOT Median,[7],133 mg/dL
same,Non-HDL-C Median % chg from BL,[7],−0.7%
same,"LDL-C Diff from pbo (median % chg, Hodges-Lehmann)",[8],−3.8%
same,LDL-C EOT Median,[8],87.0 mg/dL
same,LDL-C Median % chg from BL,[8],2.2%
same,"Non-HDL-C Diff from pbo (median % chg, Hodges-Lehmann)",[8],−4.4%
same,Non-HDL-C EOT Median,[8],135 mg/dL
same,Non-HDL-C Median % chg from BL,[8],5.1%
same,"LDL-C Diff from pbo (median % chg, Hodges-Lehmann)",[9],−1.2%
same,LDL-C EOT Median,[9],91.5 mg/dL
same,LDL-C Median % chg from BL,[9],3.5%
same,"Non-HDL-C Diff from pbo (median % chg, Hodges-Lehmann)",[9],−4.6%
same,Non-HDL-C EOT Median,[9],135 mg/dL
same,Non-HDL-C Median % chg from BL,[9],3.8%
same,"LDL-C Diff from pbo (median % chg, Hodges-Lehmann)",[10],−6.3%
same,LDL-C EOT Median,[10],85.0 mg/dL
same,LDL-C Median % chg from BL,[10],2.2%
same,"Non-HDL-C Diff from pbo (median % chg, Hodges-Lehmann)",[10],−6.9%
same,Non-HDL-C EOT Median,[10],133 mg/dL
same,Non-HDL-C Median % chg from BL,[10],0.0%
same,"LDL-C Diff from pbo (median % chg, Hodges-Lehmann)",[11],−2.0%
same,LDL-C EOT Median,[11],85.0
same,LDL-C Median % chg from BL,[11],1.7%
same,"Non-HDL-C Diff from pbo (median % chg, Hodges-Lehmann)",[11],−5.0%
same,Non-HDL-C EOT Median,[11],150
same,Non-HDL-C Median % chg from BL,[11],3.0%
same,"LDL-C Diff from pbo (median % chg, Hodges-Lehmann)",[12],−5.7%
same,LDL-C EOT Median,[12],92.0
same,LDL-C Median % chg from BL,[12],3.1%
same,"Non-HDL-C Diff from pbo (median % chg, Hodges-Lehmann)",[12],−4.2%
same,Non-HDL-C EOT Median,[12],129
same,Non-HDL-C Median % chg from BL,[12],6.9%
same,"LDL-C Diff from pbo (median % chg, Hodges-Lehmann)",[13],−2.6%
same,LDL-C EOT Median,[13],86.5
same,LDL-C Median % chg from BL,[13],3.1%
same,"Non-HDL-C Diff from pbo (median % chg, Hodges-Lehmann)",[13],−7.0%
same,Non-HDL-C EOT Median,[13],132
same,Non-HDL-C Median % chg from BL,[13],−1.2%
same,HDL-C Week 12 EP Median (IQR),AMR101 2 g/d + statin,38.0 (11.0) mg/dL
same,LDL-C Week 12 EP Median (IQR),AMR101 2 g/d + statin,87.0 (27.0) mg/dL
same,Non-HDL-C Week 12 EP Median (IQR),AMR101 2 g/d + statin,134.0 (41.0) mg/dL
same,RLP-C Week 12 EP Median (IQR),AMR101 2 g/d + statin,11.0 (7.0) mg/dL
same,Total cholesterol Week 12 EP Median (IQR),AMR101 2 g/d + statin,175.0 (44.0) mg/dL
same,VLDL-C Week 12 EP Median (IQR),AMR101 2 g/d + statin,44.0 (25.0) mg/dL
same,VLDL-TG Week 12 EP Median (IQR),AMR101 2 g/d + statin,168.0 (98.0) mg/dL
same,HDL-C Percent change from Baseline Median (IQR),[14],0 (19.5) %
same,LDL-C Percent change from Baseline Median (IQR),[14],2.4 (26.1) %
same,Non-HDL-C Percent change from Baseline Median (IQR),[14],2.4 (26.1) %
same,RLP-C Percent change from Baseline Median (IQR),[14],−11.1 (40.0) %
same,Total cholesterol Percent change from Baseline Median (IQR),[14],2.1 (19.6) %
same,VLDL-C Percent change from Baseline Median (IQR),[14],1.6 (54.6) %
same,VLDL-TG Percent change from Baseline Median (IQR),[14],−2.1 (48.9) %
same,HDL-C Difference from placebo Estimated median,[15],−2.2%
same,LDL-C Difference from placebo Estimated median,[15],−3.6%
same,Non-HDL-C Difference from placebo Estimated median,[15],−5.5%
same,RLP-C Difference from placebo Estimated median,[15],−16.7%
same,Total cholesterol Difference from placebo Estimated median,[15],−4.8%
same,VLDL-C Difference from placebo Estimated median,[15],−10.5%
same,VLDL-TG Difference from placebo Estimated median,[15],−11.3%
same,LDL-C Median % chg from BL,[16],9.0%
same,"LDL-C, Diff from pbo (Hodges-Lehmann median difference)",[16],2.5
same,"LDL-C, EOT (Week 12 endpoint) median",[16],82.5
same,Non-HDL-C Median % chg from BL,[16],−6.3%
